In ChEMBL document CHEMBL4118109, “A combination of 19F NMR and surface plasmon resonance for site-specific hit selection and validation of fragment molecules that bind to the ATP-binding site of a kinase” (Bioorg Med Chem, 2018):
Active and inactive are the calls of the source. The rule behind the calls is not given here.

Key:
[1] = target: T1, Mitogen-activated protein kinase 1 (Homo sapiens, UniProt P28482); assay: Binding affinity to ATP-binding site of ERK2 (unknown origin) assessed as reduction in signal intensity by 19F NMR spectroscopy; parameters: concentration or dose not given beside the values
[2] = target: T1, Mitogen-activated protein kinase 1; assay: Binding affinity to ATP-binding site of ERK2 (unknown origin) by surface plasmon resonance method
[3] = target: T1, Mitogen-activated protein kinase 1; assay: Binding affinity to ATP-binding site of ERK2 (unknown origin) assessed as reduction in signal intensity in absence of competitor by 19F NMR spectroscopy; parameters: concentration or dose not given beside the values
[4] = target: T1, Mitogen-activated protein kinase 1; assay: Binding affinity to ATP-binding site of ERK2 (unknown origin) assessed as reduction in signal intensity in presence of […] by competitive 19F NMR spectroscopy; parameters: concentration or dose not given beside the values
[5] = target: T1, Mitogen-activated protein kinase 1; assay: Binding affinity to ATP-binding site of ERK2 (unknown origin) assessed as reduction in signal intensity in presence of L100919 by competitive 19F NMR spectroscopy; parameters: concentration or dose not given beside the values
[6] = target: T1, Mitogen-activated protein kinase 1; assay: Binding affinity to ATP-binding site of ERK2 (unknown origin) assessed as reduction in signal intensity in presence of L100919 at 1 mM by competitive surface plasmon resonance method; parameters: scale not given: the % may be the effect or the level left
[7] = target: T1, Mitogen-activated protein kinase 1; assay: Binding affinity to ATP-binding site of ERK2 (unknown origin) assessed as reduction in signal intensity in presence of FR180204 at 1 mM by competitive surface plasmon resonance method; parameters: scale not given: the % may be the effect or the level left
[8] = target: T1, Mitogen-activated protein kinase 1; assay: Binding affinity to ATP-binding site of ERK2 (unknown origin) by isothermal titration calorimetry

T1 sequence (P28482 whole entry): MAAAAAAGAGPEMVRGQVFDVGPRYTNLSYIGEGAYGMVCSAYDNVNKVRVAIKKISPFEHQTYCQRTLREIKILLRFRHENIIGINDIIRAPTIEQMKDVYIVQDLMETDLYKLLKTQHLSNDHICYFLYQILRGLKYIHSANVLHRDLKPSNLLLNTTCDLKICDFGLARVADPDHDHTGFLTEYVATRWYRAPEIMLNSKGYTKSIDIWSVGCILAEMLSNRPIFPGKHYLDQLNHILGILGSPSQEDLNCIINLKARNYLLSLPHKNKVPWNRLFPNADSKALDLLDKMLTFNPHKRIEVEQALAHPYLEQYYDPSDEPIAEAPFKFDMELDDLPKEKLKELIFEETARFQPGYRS

Row | Structure (SMILES) | Activity [1] | Kd [2] | Activity [3] | Activity [4] | Activity [5] | Activity [6] | Activity [7] | Kd [8]
1 | O=C1c2ccc(F)cc2CN1[C@H]1CCCNC1 | 66% | > 1000 µM | 67% | 2% | 8% |  |  | 
2 | O=C1c2cccc(F)c2CN1[C@H]1CCCNC1 | 32% | > 1000 µM | 22% | -1% | 8% | 26% | 31% | 
3 | Fc1cccc2c1CC1(CCOCC1)CN2 | 29% |  | 20% | 14% | 16% |  |  | 
4 | O=C1c2ccc(F)cc2CN1C1CCNCC1 | 13% | > 1000 µM | 7% |  |  |  |  | 
5 | Fc1ccc2c(CC3CCOCC3)c[nH]c2c1 | 36% | > 1000 µM | 24% | 22% | 23% |  | 25% | 
6 | CC(C)(C)OC(=O)N1CCC2(CC1)C(=O)Nc1ccc(F)cc12 | 39% |  | 45% | 13% | 15% |  |  | 
7 | Fc1ccc2[nH]cc(C3CCCNC3)c2c1 (centres undefined) | 10% | > 1000 µM | 20% | 9% | 9% |  |  | 
8 | NC1CCN(c2cccc(F)c2[N+](=O)[O-])CC1 | 39% | > 1000 µM | 10% |  |  |  |  | 
9 | N[C@H]1CC[C@H](N2Cc3c(F)cccc3C2=O)CC1 | 41% | 495 µM | 9% |  |  | 12% | 15% | 
10 | COCCCNc1ccc(F)cc1[N+](=O)[O-] | 29% |  | 15% | 10% | 14% |  |  | 
11 | CC(C)(C)OC(=O)N[C@H]1CCN(c2ncccc2[N+](=O)[O-])C1 | 20% | > 1000 µM | 2% |  |  |  |  | 
12 | N[C@H]1CC[C@H](N2Cc3cc(F)ccc3C2=O)CC1 | inactive |  |  |  |  |  |  | 

Second part, the compound after the results:

Row | Activity [1] | Kd [2] | Activity [3] | Activity [4] | Activity [5] | Activity [6] | Activity [7] | Kd [8] | Structure (SMILES)
13 | 14% | > 1000 µM | 16% | 10% | 14% | 10% |  |  | Fc1ccc2[nH]cc(C3CCOCC3)c2c1
14 | 32% |  | 0% |  |  |  |  |  | CC(C)(C)OC(=O)N1CCC(CN)(Cc2ccc(C(F)(F)F)cc2)CC1
15 | 47% | > 1000 µM | 35% | 17% | 24% | 12% | 14% |  | O=C(O)c1ccc2nc(-c3ccccc3F)nn2c1
16 | 54% | > 1000 µM | 49% | 16% | 20% |  | 12% |  | Fc1cccc(-c2nnc3ccc(Br)cn23)c1
17 | 26% | > 1000 µM | 30% | 23% | 25% |  |  |  | CC(C)(C)OC(=O)N1CCC(Cc2cccc(C(F)(F)F)c2)(C(=O)O)CC1
18 | inactive |  |  |  |  |  |  |  | NCc1cn(Cc2ccccc2F)cn1
19 | inactive | > 1000 µM |  |  |  |  |  |  | NCc1cn(Cc2ccccc2C(F)(F)F)cn1
20 | 33% |  | 22% | -4% | 5% |  |  |  | FC(F)(F)c1cnn2cc(Br)cnc12
21 | 11% | 989 µM | 9% |  |  |  | 20% |  | FC(F)(F)c1ccnc(NC2CCNCC2)c1
22 | 33% |  | -12% |  |  | 19% | 23% |  | Nc1cnc2c(C(F)(F)F)cnn2c1
23 |  | > 1000 µM |  |  |  | 17% |  |  | CCOc1cc(N)cc(C(F)(F)F)c1
24 | 40% | > 1000 µM | 26% | 7% | 5% |  | 14% |  | Nc1cnc(Nc2ccc(C(F)(F)F)cc2)nc1
25 | 26% | > 1000 µM | 9% |  |  |  |  |  | CC(C)(C)OC(=O)N1CCC(CN)(Cc2cccc(C(F)(F)F)c2)CC1
26 | 43% | > 1000 µM | 26% | 15% | 24% |  |  |  | Nc1ccc2nc(-c3ccc(F)cc3)nn2c1
27 | 31% |  | 17% | 7% | 12% | 17% | 10% |  | Nc1c(F)cccc1N1CCCCC1
28 | 28% | 929 µM | 30% | 19% | 20% |  |  | 410 µM | Fc1ccc2[nH]cc(CC3CCOCC3)c2c1
